From patent US6362369B1, “Phthalic acid diamide derivatives fluorine-containing aniline compounds as starting material, agricultural and horticultural insecticides, and a method for application of the insecticides” (Nihon Nohyaku Co., Ltd., priority 1997, dated 2002)

system: diamondback moth (Plutella xylostella); assay: Insecticidal effect on diamondback moth (Test Example 1); format: in vivo; settings: diamondback moth; judged by the mortality criterion of Test Example 1
Procedure: Insecticidal effect on diamondback moth (Plutella xylostella) Adult diamondback moths were released and allowed to oviposit on a Chinese cabbage seedling. […] After air-drying, it was allowed to stand in a room thermostated at 25° C. Six days after the immersion, the hatched insects were counted. The mortality was calculated according to the following equation and the insecticidal effect was judged according to the criterion shown below. The test was carried out with triplicate groups of 10 insects. [table]

Structure (SMILES) | Insecticidal effect, Test Example 1
CNC(=O)c1c(C(=O)Nc2cc(Cl)ccc2C)cccc1[N+](=O)[O-] [compound 3] | C (89-80)
CCNC(=O)c1ccccc1C(=O)Nc1ccc(C(F)(F)F)cc1 [compound 7] | A (100)
CCCNC(=O)c1ccccc1C(=O)Nc1ccc(C(F)(F)F)cc1 [compound 14] | A (100)
CCCNC(=O)c1cccc(Cl)c1C(=O)Nc1ccc(OC(F)F)cc1C [compound 16] | A (100)
CC(C)NC(=O)c1ccccc1C(=O)Nc1ccccc1 [compound 20] | A (100)
CC(C)NC(=O)c1ccccc1C(=O)Nc1cccc(SC(F)(F)F)c1 [compound 31] | A (100)
CC(C)NC(=O)c1ccccc1C(=O)Nc1ccc(SC(F)F)cc1 [compound 32] | A (100)
CC(C)NC(=O)c1ccccc1C(=O)Nc1ccc(SCC(F)(F)F)cc1 [compound 33] | A (100)
CC(C)NC(=O)c1ccccc1C(=O)Nc1ccc(SC(F)(F)C(F)(F)Br)cc1 [compound 37] | A (100)
Cc1cc(OC(F)(F)F)ccc1NC(=O)c1ccccc1C(=O)NC(C)C [compound 59] | A (100)
Cc1cc(SC(C)C)ccc1NC(=O)c1ccccc1C(=O)NC(C)C [compound 68] | A (100)
Cc1cc(Oc2c(F)c(F)c(F)c(F)c2F)ccc1NC(=O)c1ccccc1C(=O)NC(C)C [compound 73] | A (100)
Cc1cc(Oc2cccc(C(F)(F)F)c2)ccc1NC(=O)c1ccccc1C(=O)NC(C)C [compound 74] | A (100)
CC(C)NC(=O)c1ccccc1C(=O)Nc1cc(Cl)c(OC(F)F)c(Cl)c1 [compound 84] | A (100)
CC(C)NC(=O)c1c(Cl)cccc1C(=O)Nc1ccc(C(C)(C)C)cc1 [compound 88] | A (100)
CC(C)NC(=O)c1c(Cl)cccc1C(=O)Nc1ccc(OC(F)F)cc1 [compound 92] | A (100)
CC(C)NC(=O)c1c(Cl)cccc1C(=O)Nc1ccc(SCC(F)(F)F)cc1 [compound 101] | A (100)
CC(C)NC(=O)c1c(Cl)cccc1C(=O)Nc1cc(Cl)c(OC(F)F)c(Cl)c1 [compound 151] | A (100)
CC(C)NC(=O)c1cc(Cl)ccc1C(=O)Nc1ccccc1 [compound 168] | A (100)
CC(C)NC(=O)c1cc(Cl)ccc1C(=O)Nc1ccc(F)c(F)c1 [compound 174] | A (100)
CC(C)NC(=O)c1cc(Cl)ccc1C(=O)Nc1cccc(Cl)c1Cl [compound 175] | A (100)
Cc1ccc(F)cc1NC(=O)c1ccc(Cl)cc1C(=O)NC(C)C [compound 179] | A (100)
CC(C)NC(=O)c1ccc(Cl)cc1C(=O)Nc1ccc(OC(F)(F)F)cc1 [compound 185] | A (100)
CC(C)NC(=O)c1ccc(Cl)cc1C(=O)Nc1cccc(Cl)c1Cl [compound 186] | D (79-50)
Cc1c(Cl)cccc1NC(=O)c1cc(Cl)ccc1C(=O)NC(C)C [compound 189] | A (100)
Cc1cc(Cl)ccc1NC(=O)c1cc(Cl)ccc1C(=O)NC(C)C [compound 190] | A (100)

Structure (SMILES) | Insecticidal effect, Test Example 1
Cc1ccc(F)cc1NC(=O)c1cc(Cl)ccc1C(=O)NC(C)C [compound 192] | A (100)
CC(C)NC(=O)c1ccc(Cl)cc1C(=O)Nc1ccc(F)c(F)c1F [compound 194] | A (100)
CCCCc1ccc(NC(=O)c2c(Cl)cccc2C(=O)NC(C)C)cc1 [compound 195] | A (100)
CC(C)NC(=O)c1cccc(Cl)c1C(=O)Nc1ccc(C(F)(F)C(F)(F)C(F)(F)C(F)(F)F)cc1 [compound 199] | A (100)
CC(C)NC(=O)c1cccc(Cl)c1C(=O)Nc1ccc(SCC(F)(F)F)cc1 [compound 202] | A (100)
CC(C)NC(=O)c1cccc(Cl)c1C(=O)Nc1ccc(SC(F)(F)C(F)F)cc1 [compound 203] | A (100)
CC(=O)c1ccc(NC(=O)c2c(Cl)cccc2C(=O)NC(C)C)cc1 [compound 207] | A (100)
CC(C)NC(=O)c1cccc(Cl)c1C(=O)Nc1cccc(Cl)c1Cl [compound 208] | A (100)
CC(C)NC(=O)c1cccc(Cl)c1C(=O)Nc1cc(Cl)c(OC(F)F)c(Cl)c1 [compound 227] | A (100)
CC(C)NC(=O)c1cccc(Cl)c1C(=O)Nc1ccc(OC(F)F)c(F)c1 [compound 233] | A (100)
Cc1c(NC(=O)c2c(Cl)cccc2C(=O)NC(C)C)cccc1OC(F)(F)C(F)Cl (stereo not drawn) [compound 240] | A (100)
CC(C)NC(=O)c1cccc(Cl)c1C(=O)Nc1ccc2[nH]c(C(F)(F)F)nc2c1 [compound 256] | A (100)
Cc1cc(C)c(NC(=O)c2cccc(Br)c2C(=O)NC(C)C)c(C)c1 [compound 265] | A (100)
Cc1c(NC(=O)c2cccc(Br)c2C(=O)NC(C)C)ccc(OC(F)F)c1C [compound 295] | D (79-50)
Cc1cc(C)c(NC(=O)c2c(Br)cccc2C(=O)NC(C)C)c(C)c1 [compound 304] | A (100)
Cc1c(Cl)ccc(NC(=O)c2c(Br)cccc2C(=O)NC(C)C)c1C [compound 308] | A (100)
CCc1cc(Cl)ccc1NC(=O)c1c(Br)cccc1C(=O)NC(C)C [compound 310] | A (100)
Cc1cc(OC(F)F)ccc1NC(=O)c1c(C(=O)NC(C)C)ccc(Br)c1Br [compound 342] | A (100)
Cc1cc(Cl)ccc1NC(=O)c1c(C(=O)NC(C)C)ccc(Br)c1Br [compound 343] | A (100)
Cc1cc(Oc2cccc(C(F)(F)F)c2)ccc1NC(=O)c1cccc(I)c1C(=O)NC(C)C [compound 398] | A (100)
Cc1cc(SC(C)C)ccc1NC(=O)c1cccc(I)c1C(=O)NC(C)C [compound 402] | A (100)
CC(C)NC(=O)c1cccc(I)c1C(=O)Nc1ccc(SC(F)(F)C(F)F)cc1 [compound 422] | A (100)
Cc1cc(Cl)ccc1NC(=O)c1c(I)cccc1C(=O)NC(C)C [compound 428] | A (100)
Cc1c(Cl)ccc(NC(=O)c2c(I)cccc2C(=O)NC(C)C)c1C [compound 434] | A (100)
Cc1cc(OC(C)C)ccc1NC(=O)c1c(I)cccc1C(=O)NC(C)C [compound 442] | A (100)

same assay, conditions: mortality judged according to the criterion shown in Test Example 1

Structure (SMILES) | Insecticidal effect on diamondback moth (Test Example 1), judged grade
CC(C)NC(=O)c1cccc(I)c1C(=O)Nc1cc(Cl)c(OC(F)F)c(Cl)c1 [compound 449] | A (100)
Cc1cc(Oc2cccc(C(F)(F)F)c2)ccc1NC(=O)c1c(I)cccc1C(=O)NC(C)C [compound 458] | A (100)
Cc1cc(Oc2c(F)c(F)c(F)c(F)c2F)ccc1NC(=O)c1c(I)cccc1C(=O)NC(C)C [compound 459] | A (100)
